Measurements from US20050119289A1 (priority 2002, published 2005).
≈ marks a conversion by molar mass, not a printed value. Entries after “also recorded” stand apart in the source; their conditions may differ. Structures can show the parent of a compound that is named as a salt. Where two headings read alike, the source gives them in different places. Each block holds one compound with its values, some of them ahead of it.

Experiments:
P-gp [1] = molecular target: T1, P-gp (Homo sapiens, UniProt P08183); assay: Rhodamine 123 efflux assay, HeL023 cells; type: cell-based; design: nearly all (100±1%) the cells expressing high level of functional P-gp; endogenous in cells; host or cells: HeL023 human erythroleukemia cells; conditions: for inhibition of P-gp activity (in words): Rh123 efflux; for % of Rh123 negative cells: antagonist 10 μM, cells expressing P-gp activity
Experimental: (§1) 5×10^5 cells from each subline were loaded with 50 ng/ml of rhodamine 123 for 30 minutes at 37° C. in medium. The cells were washed and resuspended in dye-staining agent free medium for 3 hours at 37° C. to allow rhodamine 123 efflux. The cells were then washed twice and the fluorescence of intracellular rhodamine 123 were analysed with Flow cytometer (residual fluorescence FRES). The fluorescence was compared with loaded cells maintained at 4° C. to prevent drug export (maximal fluorescence FMAX). […] Cells from each subline that were not being exposed to rhodamine 123 were used as negative controls.
(§2) Rhodamine 123 (Rh 123) retention, a P-gp functional assay, was studied in all cell lines. This assay was performed by incubating cells with Rh 123 and determining Rh 123 accumulation by measuring its fluorescence. The maximum load of Rh 123 (FMAX) was quantified at the end of treatment harvesting the cells and storing them at 4° C. to prevent any active Rh123 efflux. The P-gp drug efflux was allowed incubating Rh 123-loaded cells in fresh new medium Rh 123-free for 3 hours at 37° C. After this incubation, residual fluorescence (FRES) was measured and compared to FMAx.

[2] = test system: human lung carcinoma SKMES cell line; assay: MTT growth inhibitory assay, SKMES; type: cell-based; conditions: SKMES cells, read-out: IC50 of anti-neoplastic agent used jointly with A3 antagonist
Excerpt: (§3) The cells are sub-cultured twice a week.

A375 cells = assay: Metabolic (MEK, ERK, p38MAPK) inhibitors on G2/M arrest and apoptosis, flow cytometry; type: cell-based, human
[3] = test system: human colon carcinoma HT29 cell line; assay: MTT growth inhibitory assay, HT29; type: cell-based; conditions: for HT29 more refractory than the A375 cell line: ratio of IC50 HT29 vs A375; for IC50: Homo sapiens, HT-29, HT29 cells, read-out: IC50 of anti-neoplastic agent used jointly with A3 antagonist
Excerpt: as §3

A375 melanoma cells = assay: Colony formation assay; type: cell-based, human; conditions: for colony formation: 7 days
Experimental: FIG. 2 illustrates colony formation assay of A375 cells. Cells were treated with different drugs and colonies were counted after 7 days. The values represent the mean±SEM of four independent experiments. D=DMSO (control); T=paclitaxel, 0.75 ng/ml; M=MRE 3008F20, 10 μM; C═CI-IB-MECA, 10 μM; TM=paclitaxel plus MRE 3008F20; TC=paclitaxel plus CI-IB-MECA treated cells. *P<0.01 TM versus T. Analysis was by ANOVA followed by Dunnett's test.;
Control plates received the same volume of DMSO alone. After 7 days of growth at 37° C. in humidified atmosphere containing 5% CO2, the cells were fixed with absolute methanol for 5′ and stained with 1/10 Giemsa/phosphate-buffered saline (PBS) staining solution for 10 minutes. Staining solution was removed and colonies of greater than 30 cells were scored as survivors. For each treatment, six individual wells were scored.

P-gp [4] = molecular target: T1, P-gp; assay: Rhodamine 123 efflux assay, A375 cells; type: cell-based; design: endogenous in cells
Experimental: as §1, §2

T1 sequence (P08183 whole entry): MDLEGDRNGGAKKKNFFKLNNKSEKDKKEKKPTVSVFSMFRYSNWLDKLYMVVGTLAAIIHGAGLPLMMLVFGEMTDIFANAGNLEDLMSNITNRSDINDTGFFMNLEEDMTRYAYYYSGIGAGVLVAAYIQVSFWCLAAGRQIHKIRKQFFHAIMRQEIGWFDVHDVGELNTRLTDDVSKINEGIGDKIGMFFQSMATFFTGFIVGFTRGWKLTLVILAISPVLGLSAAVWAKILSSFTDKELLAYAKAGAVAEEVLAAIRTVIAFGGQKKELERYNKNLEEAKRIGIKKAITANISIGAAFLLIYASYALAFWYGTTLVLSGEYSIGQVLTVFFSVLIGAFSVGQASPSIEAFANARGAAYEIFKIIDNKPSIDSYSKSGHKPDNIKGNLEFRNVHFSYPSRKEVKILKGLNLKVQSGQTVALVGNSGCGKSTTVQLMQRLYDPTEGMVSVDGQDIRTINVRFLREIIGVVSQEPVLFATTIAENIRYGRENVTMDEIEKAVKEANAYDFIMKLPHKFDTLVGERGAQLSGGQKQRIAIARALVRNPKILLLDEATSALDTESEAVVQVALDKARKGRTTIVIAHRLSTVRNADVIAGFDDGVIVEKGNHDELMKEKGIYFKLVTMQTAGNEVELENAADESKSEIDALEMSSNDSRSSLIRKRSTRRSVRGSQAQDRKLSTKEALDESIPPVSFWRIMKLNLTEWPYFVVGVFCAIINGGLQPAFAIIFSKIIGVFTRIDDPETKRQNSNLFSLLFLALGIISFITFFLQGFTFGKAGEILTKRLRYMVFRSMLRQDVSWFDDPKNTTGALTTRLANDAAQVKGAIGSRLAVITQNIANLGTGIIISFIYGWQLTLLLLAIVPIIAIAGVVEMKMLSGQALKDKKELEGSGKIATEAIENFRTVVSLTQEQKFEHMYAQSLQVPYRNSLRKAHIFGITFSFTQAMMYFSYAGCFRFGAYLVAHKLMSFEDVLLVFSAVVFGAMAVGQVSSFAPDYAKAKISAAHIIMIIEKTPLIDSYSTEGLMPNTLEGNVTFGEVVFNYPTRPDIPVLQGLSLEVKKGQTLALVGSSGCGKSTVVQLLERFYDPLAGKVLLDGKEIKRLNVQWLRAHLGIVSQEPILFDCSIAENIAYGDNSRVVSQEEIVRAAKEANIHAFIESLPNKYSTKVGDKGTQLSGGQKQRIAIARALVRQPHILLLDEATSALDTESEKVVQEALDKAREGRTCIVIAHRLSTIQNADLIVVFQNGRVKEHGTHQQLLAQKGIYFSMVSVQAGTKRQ

- inhibition of P-gp activity (in words) (P-gp [1]): strong inhibitors of P-gp activity
- % of Rh123 negative cells (P-gp [1]): 0.4 ± 0.2%
SMILES: CCN(CC)c1ccc(NC(=O)Nc2nc3nn(C)cc3c3nc(-c4ccco4)nn23)cc1 [IL-10, N-1-(4-diethylamino-phenyl)-N′-5-[8-methyl-2-(2-furyl)-pyrazolo [4,3-e]1,2,4-triazolo[1,5-c]pyrimidine]-urea]

- IC50 ([2]; with IL-10 0.5 μg/ml): 0.0011 µg/mL (≈ 0.00136 µM)
- IC50 ([2]; with IL-11 0.5 μg/ml): 0.00094 µg/mL (≈ 0.00116 µM)
- IC50 ([2]; with MRE3008F20 1 μg/ml): 0.0013 µg/mL (≈ 0.0016 µM)
SMILES: CC[C@]1(O)C[C@@H]2CN(CCc3c([nH]c4ccccc34)[C@@](C(=O)OC)(c3cc4c(cc3OC)N(C)[C@H]3[C@@](O)(C(=O)OC)[C@H](OC(C)=O)[C@]5(CC)C=CCN6CC[C@]43[C@@H]65)C2)C1 [vinblastine]

- inhibition of P-gp activity (in words) (P-gp [1]): strong inhibitors of P-gp activity
SMILES: Cc1ccc(NC(=O)Nc2nc3nn(C)cc3c3nc(-c4ccco4)nn23)cc1 [MRE 3046F20, 5-N-(4-methylphenyl-carbamoyl)amino-8-methyl-2 (2-furyl)-pyrazolo-[4,3e]-1,2,4-triazolo[1,5-c]pyrimidine]

SMILES: C[S+]([O-])c1ccc(-c2nc(-c3ccncc3)c(-c3ccc(F)cc3)[nH]2)cc1 (centres unmarked) [SB203580]
- G2/M accumulation rate of inhibitor plus paclitaxel or vindesine respect to paclitaxel or vindesine alone (in words) (A375 cells): did not alter

SMILES: Nc1nc2ccc(Cl)cc2c2nc(-c3ccco3)nn12 [CGS 15943, 5-amino-9-chloro-2-(furyl) 1,2,4-triazolo[1,5-c]quinazoline]
- inhibition of P-gp activity (in words) (P-gp [1]): much lower effect on P-gp activity

SMILES: O=C1c2c(O)ccc(O)c2C(=O)c2c(NCCNCCO)ccc(NCCNCCO)c21 [mitoxantrone]
- HT29 more refractory than the A375 cell line [3]: approximately 30 fold

SMILES: CNC(=O)[C@H]1O[C@@H](n2cnc3c(NCc4cccc(I)c4)nc(Cl)nc32)[C@H](O)[C@@H]1O [CI-IB-MECA]
- colony formation increased (A375 melanoma cells; CI-IB-MECA 10 μM alone vs DMSO control): about 30%
- colony formation increased (A375 melanoma cells; CI-IB-MECA 10 μM combined with paclitaxel 0.75 ng/ml vs paclitaxel alone): 32%
- colony formation (A375 melanoma cells; CI-IB-MECA 10 μM or MRE 3008F20 10 μM combined with paclitaxel 0.75 ng/ml): 85 % of control
- colony formation (A375 melanoma cells; agent alone (CI-IB-MECA 10 μM; paclitaxel 0.75 ng/ml; MRE 3008F20 10 μM)): 130 % of control

- IC50 ([3]; with IL-10 0.5 μg/ml): 0.31 µg/mL (≈ 0.57 µM)
- IC50 ([3]; with IL-11 0.5 μg/ml): 0.38 µg/mL (≈ 0.699 µM)
- IC50 ([3]; with MRE3008F20 1 μg/ml): 0.28 µg/mL (≈ 0.515 µM)
SMILES: COc1cccc2c1C(=O)c1c(O)c3c(c(O)c1C2=O)C[C@@](O)(C(=O)CO)C[C@@H]3O[C@H]1C[C@H](N)[C@H](O)[C@H](C)O1 [doxorubicin]
- HT29 more refractory than the A375 cell line [3]: approximately 30 fold

- % of Rh123 negative cells (P-gp [1]): 0.5 ± 0.3%
SMILES: CCCn1cc2c(nc(NC(=O)Nc3ccc(OC)cc3)n3nc(-c4ccco4)nc23)n1 [MRE3008F20, 5-[[(4-Methoxyphenyl)amino]carbonyl]amino-8-propyl-2-(2-furyl)-pyrazolo[4,3-e]1,2,4-triazolo[1,5-c]pyrimidine]
- P-gp mediated Rh123 transport (in words) (P-gp [4]; MRE3008F20 10 μM): completely blockade of P-gp mediated Rh123 transport
- inhibition of P-gp activity (in words) (P-gp [1]): near total P-gp inhibition; also recorded: strong inhibitors of P-gp activity

- inhibition of P-gp activity (in words) (P-gp [1]): strong inhibitors of P-gp activity
SMILES: CCCn1cc2c(nc(NC(=O)Nc3ccccc3)n3nc(-c4ccco4)nc23)n1 [MRE 3055F20, 5-N-(4-phenylcarbamoyl)amino-8-propyl-2 (2furyl)-pyrazolo[4,3e]-1,2,4triazolo-[1,5c]pyrimidine]

- inhibition of P-gp activity (in words) (P-gp [1]): much lower effect on P-gp activity
SMILES: Nc1nc(NCCc2ccc(O)cc2)nc2nc(-c3ccco3)nn12 [ZM 241385, 4-(2-[7-amino-2-(2-furyl)-[1,2,4]triazolo[2,3-a][1,3,5]triazin-5-ylamino]ethyl)phenol]

- IC50 ([3]; with IL-10 0.5 μg/ml): 0.77 µg/mL
- IC50 ([3]; with IL-11 0.5 μg/ml): 0.85 µg/mL
- IC50 ([3]; with MRE3008F20 1 μg/ml): 0.53 µg/mL
- IC50 ([2]; with IL-10 0.5 μg/ml): 0.67 µg/mL
- IC50 ([2]; with IL-11 0.5 μg/ml): 0.061 µg/mL
- IC50 ([2]; with MRE3008F20 1 μg/ml): 0.57 µg/mL
SMILES: CCc1c2c(nc3ccc(OC(=O)N4CCC(N5CCCCC5)CC4)cc13)-c1cc3c(c(=O)n1C2)COC(=O)[C@]3(O)CC [irinotecan HCL]

- inhibition of P-gp activity (in words) (P-gp [1]): strong inhibitors of P-gp activity
- % of Rh123 negative cells (P-gp [1]): 1.0 ± 0.2%
SMILES: CCCCn1cc2c(nc(NC(=O)Nc3ccccc3)n3nc(-c4ccco4)nc23)n1 [MRE 3062F20, 5-N-(4-phenyl-carbamoyl)amino-8-butyl-2(2furyl)-pyrazolo-[4,3e]-1,2,4triazolo[1,5-c]pyrimidine]

SMILES: N#CC(=C(/N)Sc1ccccc1N)/C(C#N)=C(\N)Sc1ccccc1N [U0126]
- G2/M accumulation rate of inhibitor plus paclitaxel or vindesine respect to paclitaxel or vindesine alone (in words) (A375 cells; A375, PD98059 20 μM, U0126 30 μM, SB203580 1 μM): did not alter
- effect on MRE 3008F20 blockade of P-gp (in words) (P-gp [4]; U0126 30 μM for 30 minutes, then MRE3008F20 10 μM): failed to prevent
